Source: patent US20220241413A1, “COMBINATION THERAPIES USING CD-38 ANTIBODIES” (Takeda Pharmaceutical Company Limited, priority 2019, published 2022)

Assays:
[1] = system: newly diagnosed multiple myeloma (NDMM); experiment: AB79-1002 phase 1b study, AB79 with LenDex or VRd in NDMM: disease response; assay type: in vivo, human; conditions: total population including both backbone regimens, one patient pending
Text: This is a Phase 1b, open-label, multicenter study to evaluate the safety, efficacy, tolerability, and pharmacokinetics (PK) of AB79 when added to 1 of 2 standard backbone regimens (lenalidomide plus dexamethasone [LenDex] or bortezomib [Velcade] plus lenalidomide and dexamethasone [VRd]) in adult patients with newly diagnosed multiple myeloma (NDMM) for whom stem cell transplantation (SCT) is not planned as initial therapy. The dose and schedule for the backbone regimens (LenDex and VRd) are given in accordance with product labeling or standard medical practice. Treatment cycles are 28 days until disease progression (PD) or unacceptable toxicity occurs. Treatment may be discontinued for other reasons listed below. AB79 is supplied by the sponsor. Bortezomib, dexamethasone, and lenalidomide are standard-of-care agents that are supplied from commercial sources. […]
Efficacy assessment of tumor response and disease progression are conducted in accordance with IMWG criteria. […] Bone marrow examinations, skeletal surveys, computed tomography (CT) or magnetic resonance imaging ([…]) to evaluate lytic and/or extramedullary plasmacytomas, and serum calcium corrected for albumin are evaluated as necessary based on patient's baseline disease status. […]

[2] = system: relapsed/refractory multiple myeloma (RRMM); experiment: AB79-1501 study, AB79 plus PomDex combination cohort in RRMM: disease response; assay type: in vivo, human
Text: This is a multicenter, dose-escalation, open-label, single-arm, Phase 1/2a study designed to determine the safety, tolerability, efficacy, PK, and immunogenicity of AB79 monotherapy in patients with RRMM, and to provide a preliminary assessment of its activity against MM. This study is an amendment to the Phase 1/2a study in RRMM described in Example 1 (a) to allow for an increase in the number of patients enrolled in the Phase 1 study; and (b) to add a cohort of patients to evaluate AB79 combined with the backbone regimen of pomalidomide and dexamethasone (PomDex) in patients with RRMM who have received at least 2 prior therapies and are refractory to the last therapy before study entry. PomDex is approved for this patient population and adding an anti-CD38 monoclonal antibody to it, especially one that is given subcutaneously (SC), could be beneficial and convenient for patients.
The study provides a Confirmation Cohort and a Combination Cohort. […]
The preliminary efficacy of AB79 for MM is evaluated by measuring the ORR (defined as the proportion of patients who achieved a PR or better during study) and the composition of sCR, CR, VGPR, and PR as defined by the IMWG Uniform Response Criteria. MR will also be analyzed. In addition, the efficacy of AB79 is assessed in patients by measuring DOR, PFS, and 1-year OS. TTR will also be measured. […]

For “AB79: anti-CD38 monoclonal IgG1 antibody; heavy chain SEQ ID NO:11, light chain SEQ ID NO:12”, the “preliminary objective response rate (ORR)” value [1] was 100%, the “clinical benefit rate (minor response or better)” value [2] was 100% and the “preliminary objective response rate (ORR)” value [2] was 40%.
